Data as given in the CheMixHub ionic liquid set.

Experiment: xn = mol fraction of the nth substance listed
Conditions: 101 kPa

CC[N+](C)(CC)CCOC.F[B-](F)(F)F + O=C1CCCO1
Conditions	electrical conductivity [S/m]	viscosity [mPa·s]
288.15 K, x1 = 0.1006	0.841	6.82
288.15 K, x1 = 0.2004	0.851	9.23
288.15 K, x1 = 0.3005	0.691	16.02
288.15 K, x1 = 0.4002	0.57	23.81
288.15 K, x1 = 0.4999	0.424	63.2
288.15 K, x1 = 0.6001	0.29	103.1
288.15 K, x1 = 0.6998	0.215	157.6
288.15 K, x1 = 0.7999	0.164	213
293.15 K, x1 = 0.1006	0.951	5.32
293.15 K, x1 = 0.2004	0.976	7.92
293.15 K, x1 = 0.3005	0.817	13.79
293.15 K, x1 = 0.4002	0.688	20.66
293.15 K, x1 = 0.4999	0.522	49.1
293.15 K, x1 = 0.6001	0.377	78.1
293.15 K, x1 = 0.6998	0.298	116.8
293.15 K, x1 = 0.7999	0.227	155.5
298.15 K, x1 = 0.1006	1.06	4.185
298.15 K, x1 = 0.2004	1.114	6.94
298.15 K, x1 = 0.3005	0.956	11.91
298.15 K, x1 = 0.4002	0.811	17.89
298.15 K, x1 = 0.4999	0.641	38.49
298.15 K, x1 = 0.6001	0.472	59.7
298.15 K, x1 = 0.6998	0.389	86.9
303.15 K, x1 = 0.1006	1.18	3.324
303.15 K, x1 = 0.2004	1.26	6.02
303.15 K, x1 = 0.3005	1.113	10.17
303.15 K, x1 = 0.4002	0.971	15.32
303.15 K, x1 = 0.4999	0.783	30.01
303.15 K, x1 = 0.6001	0.596	45.3
303.15 K, x1 = 0.6998	0.503	64.6
308.15 K, x1 = 0.1006	1.28	2.671
308.15 K, x1 = 0.2004	1.433	5.26
308.15 K, x1 = 0.3005	1.28	8.82
308.15 K, x1 = 0.4002	1.126	13.39
308.15 K, x1 = 0.4999	0.927	24.01
308.15 K, x1 = 0.6001	0.725	35.23
308.15 K, x1 = 0.6998	0.615	48.3
313.15 K, x1 = 0.1006	1.416	2.197
313.15 K, x1 = 0.2004	1.606	4.633
313.15 K, x1 = 0.3005	1.47	7.63
313.15 K, x1 = 0.4002	1.29	11.62
313.15 K, x1 = 0.4999	1.09	19.44
313.15 K, x1 = 0.6001	0.868	27.85
313.15 K, x1 = 0.6998	0.745	36.75
318.15 K, x1 = 0.1006	1.55	1.855
318.15 K, x1 = 0.2004	1.78	4.085
318.15 K, x1 = 0.3005	1.65	6.55
318.15 K, x1 = 0.4002	1.48	10.01
318.15 K, x1 = 0.4999	1.27	15.67
318.15 K, x1 = 0.6001	1.04	21.94
318.15 K, x1 = 0.6998	0.878	27.84
323.15 K, x1 = 0.1006	1.69	1.577
323.15 K, x1 = 0.2004	1.97	3.603
323.15 K, x1 = 0.3005	1.839	5.68
323.15 K, x1 = 0.4002	1.68	8.77
323.15 K, x1 = 0.4999	1.46	12.42
323.15 K, x1 = 0.6001	1.22	16.68
323.15 K, x1 = 0.6998	1.02	20.94
328.15 K, x1 = 0.1006	1.827	1.35
328.15 K, x1 = 0.2004	2.15	3.183
328.15 K, x1 = 0.3005	2.05	4.95
328.15 K, x1 = 0.4002	1.89	7.71
328.15 K, x1 = 0.4999	1.66	10.11
328.15 K, x1 = 0.6001	1.41	13.1
328.15 K, x1 = 0.6998	1.21	15.79
333.15 K, x1 = 0.1006	1.96	1.142
333.15 K, x1 = 0.2004	2.34	2.827
333.15 K, x1 = 0.3005	2.25	4.282
333.15 K, x1 = 0.4002	2.1	6.74
333.15 K, x1 = 0.4999	1.86	8.58
333.15 K, x1 = 0.6001	1.63	11.02
333.15 K, x1 = 0.6998	1.404	12.64
338.15 K, x1 = 0.1006	2.08	0.992
338.15 K, x1 = 0.2004	2.53	2.498
338.15 K, x1 = 0.3005	2.47	3.693
338.15 K, x1 = 0.4002	2.32	5.89
338.15 K, x1 = 0.4999	2.09	6.92
338.15 K, x1 = 0.6001	1.86	8.55
338.15 K, x1 = 0.6998	1.607	9.17
343.15 K, x1 = 0.1006	2.21	0.876
343.15 K, x1 = 0.2004	2.73	2.235
343.15 K, x1 = 0.3005	2.68	3.194
343.15 K, x1 = 0.4002	2.54	5.15
343.15 K, x1 = 0.4999	2.29	5.85
343.15 K, x1 = 0.6001	2.1	7.16
343.15 K, x1 = 0.6998	1.85	6.87
348.15 K, x1 = 0.1006	2.35	0.795
348.15 K, x1 = 0.2004	2.92	2.001
348.15 K, x1 = 0.3005	2.91	2.754
348.15 K, x1 = 0.4002	2.79	4.507
348.15 K, x1 = 0.4999	2.56	4.69
348.15 K, x1 = 0.6001	2.35	5.48
348.15 K, x1 = 0.6998	2.08	5.52
353.15 K, x1 = 0.1006	2.48	0.716
353.15 K, x1 = 0.2004	3.14	1.753
353.15 K, x1 = 0.3005	3.11	2.391
353.15 K, x1 = 0.4002	3.04	4.028
353.15 K, x1 = 0.4999	2.82	3.864
353.15 K, x1 = 0.6001	2.62	4.301
353.15 K, x1 = 0.6998	2.36	3.983
